Test results published in US20250049776A1, “AUTOPHAGY INDUCING COMPOUNDS AND USES THEREOF, IN PARTICULAR FOR A SYSTEMIC TREATMENT OF DISEASES AND CONDITIONS” (Samsara Therapeutics Inc., priority 2021, published 2025).

Assays:
ZIKV = test: Infectivity assay ZIKV in SH-SY5Y cells; format: cell-based; conditions: Zika virus, MOI 5, 48 h, E staining
Procedure: (§1) Cells were seeded in 96 well plates and the following day pre-treated with a 3-fold serial dilution of compound starting from 20 μM, in 100 μL of assay media. 24 hours later, cells were infected (without removing the media) with ZIKV or HCMV at a multiplicity of infection (MOI) compatible with multiple rounds of virus replication. DMSO-treated infected and uninfected cells were included as positive and negative controls. [table]

[1] = tested on: Mutant PNPLA3-Expressing HepG2 Cells (GFP-PNPLA3 (1148>M)); test: Cellular model of NAFLD: gel assay for mutant PNPLA3-expressing HepG2 cells; format: cell-based; conditions: HepG2 cells transfected with GFP-PNPLA3 (1148>M), 24 hours
Procedure: Method: HepG2 cells were transfected with GFP-PNPLA3 (1148>M) overexpression plasmid using Lipofectamine LTX in DMEM media supplied with 1% Oleic Acid-BSA and were left overnight. The next day, cells were trypsinated and were seeded in a 96-well plate in DMEM media supplied with 1% Oleic Acid-BSA. After 7 hours, media was changed to standard DMEM supplied with the compound of interest. After 24 hours, cells were washed once with PBS and were lysed in RIPA buffer. Lysates were collected, centrifuged and the supernatants were mixed with Laemmli buffer (without DTT or boiling) and were loaded on a 4-20% SDS-PAGE gel. After electrophoresis, gels were directly imaged in the FITC channel to visualise the GFP signal.

HCMV = test: Infectivity assay HCMV in HFF cells; format: cell-based, Human Cytomegalovirus (HCMV); conditions: Human betaherpesvirus 5, 360 h, MOI 1, 15 days, gB staining
Procedure: as §1

[2] = tested on: Human osteosarcoma U20S cells; test: Assay to measure lysosome and autolysosome formation (acidic vesicle formation, LysoView/LysoTracker staining); format: cell-based; conditions: U20S cells
Procedure, shortened: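 U2OS cells treated with compounds in DMSO for 24 h, then stained 45 min at 37 °C with 1× LysoView 633 or 50 nM LysoTracker Deep Red, with Hoechst nuclear counterstain. Live-cell fluorescence imaging at 37 °C; acidic vesicle formation judged against DMSO-treated control.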

[3] = tested on: adult human dermal fibroblast cells (HDFa cells); test: Acidic vesicle formation in adult human dermal fibroblast cells; format: cell-based; conditions: concentration of 10 μM
Text: This is evidence for significant stimulation of autophagy by this compound under these conditions.

[4] = Cytotoxicity assay (MTT) parallel to HCMV infectivity assay; format: cell-based; conditions: human, HFF cells, read-out: HCMV TC50
Procedure: (§2) In parallel to the infectivity assays, in order to determine the cytotoxic properties of the compound, cells were seeded in 96 well plates and the following day pre-treated with the same serial dilutions of compound in 100 μl of assay media. The compound was left on the cells for the duration of the infectivity assays, after which a metabolic assay (MTT assay) was used to determine cell viability compared to a DMSO-treated control.

SH-SY5Y = test: Cytotoxicity assay (MTT) parallel to ZIKV infectivity assay; format: cell-based; set-up: key: A “—” symbol indicates no inhibition; conditions: SH-SY5Y cells, 48 h
Procedure: as §2

[5] = tested on: Differentiated hepatocyte GSD1A disease model cells; test: iPSC model of glycogen storage disease type 1A: glycogen and triglyceride quantification; format: cell-based, human; conditions: hepatocytes differentiated from GSD1A patient derived iPSCs, 10 μM
Procedure: Timetable for Treatment of Cells with the Compounds: • Day 1. Differentiated hepatocyte GSD1A disease model cells (DefiniGEN Ltd) were cultured in a collagen I coated 48-well plate. Empty wells were filled with PBS. • Day 9. The racemic mixture of compounds 170 and 171 (as a solution in DMSO) was added to the disease model cells • Day 11. Media for disease model cells was replaced with fresh media with compound. • Day 12. Cells were washed once in PBS and once in HBSS and 30 μL of NP40 Lysis buffer supplied with Phosphatase and Protease inhibitor cocktail was added to each well. Plate was immediately placed on dry ice. […]
Protein quantification: An aliquot of the lysates was used for protein quantification using BCA.
Glycogen quantification: An aliquot of the lysates was boiled at 96° C. for 5 minutes. […] Supernatant was used for Glycogen quantification using MAK016 kit (Merck), following manufacturer's instructions. […] 8 μL of Hydrolysis buffer from the kit was added to one aliquot from each sample (-HE; to quantify free glucose content of the lysate). The other sample was supplied with 8 μL of Hydrolysis buffer supplied with Hydrolysis Enzyme (+HE; to quantify free glucose+glycogen content of the lysate). After 30 minutes of incubation at room temperature, 10 μL of probe mix was added to each well and the absorbance at 570 nm was measured after 30 minutes incubation at room temperature. […]

[6] = tested on: dopaminergic Tyrosine hydroxylase (TH)-positive neurons injured with MPTP; test: Cellular model of Parkinson's disease (MPTP/MPP+ injury of primary mesencephalic neurons); format: cell-based, Rat; conditions: concentrations of 10 μM
Text: This model (run by Neuro-Sys SAS, France) is based on a primary culture of dopaminergic Tyrosine hydroxylase (TH)-positive neurons injured with the dopaminergic neurons-specific toxin (DA-toxin) 1-methyl-4-phenyl-1,2,3,6 tetrahydropyridine (MPTP, a prodrug of MPP*) (Dauer and Przedborski, 2003). Any substances reducing DA-toxin neurotoxicity may be useful as a new therapeutic agent for the treatment or prevention of PD.
Primary culture of mesencephalic neurons: Rat dopaminergic neurons were cultured as described by Visanji et al., 2008 and Callizot et al., 2019. Briefly, pregnant female rat (Wistar) of 15 days of gestation were killed using a deep anesthesia with CO2 chamber and a cervical dislocation. The midbrains obtained from 15-day-old rat embryos (Janvier, France) were dissected under a microscope. The embryonic midbrains will be removed and placed in ice-cold medium of Leibovitz (L15) containing 2% of Penicillin-Streptomycin (PS) and 1% of bovine serum albumin (BSA). The ventral portion of the mesencephalic flexure, a region of the developing brain rich in dopaminergic neurons, was used for the cell preparations.
The midbrains were dissociated by trypsinisation for 20 min at 37° C. (solution at a final concentration of 0.05% trypsin and 0.02% EDTA). The reaction was stopped by the addition of Dulbecco's modified Eagle's medium (DMEM) containing DNAase I grade II (0.5 mg/mL) and 10% of foetal calf serum (FCS). Cells were then mechanically dissociated by 3 passages through a 10 ml pipette. Cells were then centrifuged at 180×g for 10 min at +4° C. on a layer of BSA (3.5%) in L15 medium. The supernatant was discarded and the cell pellets re-suspended in a defined culture medium consisting of Neurobasal supplemented with B27 (2%), L-glutamine (2 mM) and 2% of PS solution and 10 ng/mL of Brain-derived neurotrophic factor (BDNF) and 1 ng/mL of Glial-Derived Neurotrophic Factor (GDNF). Viable cells were counted in a Neubauer cytometer using the trypan blue exclusion test. The cells were seeded at a density of 40,000 cells/well in 96 well-plates (pre-coated with poly-L-lysine) and maintained in a humidified incubator at 37° C. in 5% CO2/95% air atmosphere. Half of the medium was changed every 2 days with fresh medium. The wells of first and last lines and columns […] (to avoid any edge effect) and were be filled with sterile water.
Test compounds and MPTP: • i) Pre-incubation. On day 6 of culture, the test compounds were dissolved in PBS or DMSO and incubated for 1 hour before the MPTP exposure. • ii) Injury. One hour after the application of test compound, MPTP was added to a final concentration of 4 μM, diluted in control medium still in presence of compounds/inhibitors for 48h. Test compounds were tested on one culture in 96-well plate (n=6 culture wells per condition).
Immunostaining: TH and α-Synuclein. 48 Hours after intoxication, the cell culture supernatant was removed, and the cells were fixed by a solution of 4% paraformaldehyde in PBS, pH=7.3 for 20 min at room temperature. The cells were washed twice in PBS, and then permeabilized. Non-specific sites were blocked with a solution of PBS containing 0.1% of saponin and 1% FCS for 15 min at room temperature. The cultures were incubated with: (a) monoclonal anti-Tyrosine Hydroxylase (TH) antibody produced in mouse at dilution of 1/10000 in PBS containing 1% FCS, 0.1% saponin, for 2 hours at room temperature, and (b) polyclonal anti-alpha synuclein (α-synuclein) antibody produced in rabbit at dilution of 1/200 in PBS containing 1% FCS, 0.1% saponin, for 2 h at room temperature.
Automatic computer analysis. For each condition, 20 pictures (representing the whole well area) were automatically taken using ImageXpress® (Molecular Devices) at 10× magnification (20 pictures, for TH and α-synuclein into TH neurons) using the same acquisition parameters. From images, analyses was directly and automatically performed by MetaXpress® (Molecular Devices).

CCCN(C(=O)c1csc(-c2cnn(-c3ccccc3)c2)n1)C1CCNC1 (racemic) [racemic mixture of compounds 170 and 171]
IC50 (ZIKV): < 15 µM
fold increase in GFP breakdown Bafilomycin-sensitive-product signal versus an inactive control [1]: 3.7 fold
IC50 (HCMV): < 10 µM
acidic vesicle formation relative to a DMSO-treated control ([2]; concentration of 10 μM, 24 hours): clearly increased
increase in acidic vesicle formation ([2]; relative to DMSO-treated control (10 μM)): at least 25%
acidic vesicle formation relative to a DMSO-treated control [3]: significantly greater acidic vesicle formation
CC50 at 15 days [4]: > 75 µM
ZIKV TC50 (SH-SY5Y): —
reduction of cellular glycogen compared with the DMSO-only control [5]: over 75%
reduction of cellular triglycerides compared with the DMSO-only control [5]: > 20%

NC[C@H]1CCCN1C(=O)c1csc(-c2cnn(-c3ccccc3)c2)n1 [Compound 156, 1-[(2R)-1-[2-(1-phenyl-1H-pyrazol-4-yl)-1,3-thiazole-4-carbonyl]pyrrolidin-2-yl]methanamine]
increase in the length of the neurite network of dopaminergic TH positive neurons compared to the MPP+ injury alone ([6]; 1 μM and 500 nM): > 39%
increase in the number of dopaminergic TH positive neurons compared to MPP+ injury alone ([6]; 1 μM and 500 nM): > 18%
decrease in α-syn area per dopaminergic TH positive neuron compared to MPP+ injury alone ([6]; 1 μM, 500 nM and 100 nM): > 13%
